This passage reports IC50 results from patent publication US9611221B2, “Histone demethylase inhibitors” (CELGENE QUANTICEL RESEARCH, INC., priority 2012, dated 2017).

Chain of JMJD2C (Q9H3R0 2-372): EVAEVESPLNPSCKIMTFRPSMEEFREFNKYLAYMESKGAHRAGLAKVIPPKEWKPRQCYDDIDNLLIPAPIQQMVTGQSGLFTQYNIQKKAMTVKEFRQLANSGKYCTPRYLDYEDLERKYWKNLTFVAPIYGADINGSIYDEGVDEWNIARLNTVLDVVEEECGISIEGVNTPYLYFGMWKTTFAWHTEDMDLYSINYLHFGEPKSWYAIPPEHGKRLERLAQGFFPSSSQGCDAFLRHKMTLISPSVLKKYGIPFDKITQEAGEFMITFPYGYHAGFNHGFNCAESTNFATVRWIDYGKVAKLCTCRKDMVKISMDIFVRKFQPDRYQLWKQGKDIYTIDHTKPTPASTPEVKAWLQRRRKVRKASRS

For the assay, the target named is JMJD2C (Homo sapiens (Human), UniProt Q9H3R0). Kind of assay: JMJD2C in vitro enzyme inhibition assay (TR-FRET). Type of assay: biochemical. Particulars: 0.3 nM JMJD2C, 300 nM H3K9me3-biotin peptide, 2 μM alpha-ketoglutaric acid. The text has this:
This assay determines the ability of a test compound to inhibit Jarid1A, Jarid1B, and JMJD2C demethylase activity. Baculovirus expressed Jarid1A (GenBank Accession #NM_001042603, AA1-1090) was purchased from BPS Bioscience (Cat#50110). Baculovirus expressed Jarid1B (GenBank Accession #NM_006618, AA 2-751) was purchased from BPS Bioscience (Cat #50121) or custom made by MolecularThroughput. Baculovirus expressed JMJD2C (GenBank Accession #BC143571, AA 2-372) was purchased from BPS Bioscience (Cat#50105).
The ability of test compounds to inhibit the activity of JMJD2C was determined in 384-well plate format under the following reaction conditions: 0.3 nM JMJD2C, 300 nM H3K9me3-biotin labeled peptide (Anaspec cat #64360), 2 μM alpha-ketoglutaric acid in assay buffer of 50 mM HEPES, pH7.3, 0.005% Brij35, 0.5 mM TCEP, 0.2 mg/ml BSA, 50 μM sodium L-ascorbate, and 2 μM ammonium iron(II) sulfate. Reaction product was determined quantitatively by TR-FRET after the addition of detection reagent Phycolink Streptavidin-allophycocyanin (Prozyme) and Europium-anti-di-methylated histone H3 lysine 9 (H3K9me2) antibody (PerkinElmer) in the presence of 5 mM EDTA in LANCE detection buffer (PerkinElmer) at a final concentration of 50 nM and 1 nM, respectively.
The reaction mixture was incubated at room temperature for 30 minutes, and terminated by the addition of 6 μl of 5 mM EDTA in LANCE detection buffer containing 100 nM Phycolink Streptavidin-allophycocyanin and 2 nM Europium-anti-H3K9me2 antibody. Plates were read by EnVisionMultilabel Reader in TR-FRET mode (excitation at 320 nm, emission at 615 nm and 665 nm) after 1 hour incubation at room temperature. A ratio was calculated (665/615) for each well and fitted to determine inhibition constant (IC50).
The compound “3-{[(6-chloro-1,2,3,4-tetrahydronaphthalen-1- yl)methyl]amino}pyridine-4-carboxylic acid [Example 68]” had an IC50 of 100 to 1000 nM.

“3-{[(6-chloro-1-hydroxy-1,2,3,4- tetrahydronaphthalen-1- yl)methyl]amino}pyridine-4-carboxylic acid [Example 67]” had an IC50 of 100 to 1000 nM. The figure for “3-{[(7-fluoro-3,4-dihydro-2H-chromen-4- yl)methyl]amino}pyridine-4-carboxylic acid [Example 65]” is not above 100 nM. For `CC(C)Oc1ccc(CNc2cnccc2C(=O)O)cc1` [Example 11, 3-{[4-(propan-2-yloxy)benzyl]amino}pyridine-4-carboxylic acid], the IC50 was 100 to 1000 nM. Compound `O=C(O)c1ccncc1NCC1=CCCc2ccc(F)cc21` [Example 51, 3-{[(7-fluoro-3,4-dihydronaphthalen-1-yl)methyl]amino}pyridine-4-carboxylic acid] had an IC50 of 100 to 1000 nM. `Cc1cc(C)c2c(c1)C(CNc1cnccc1C(=O)O)CCC2` (centres unmarked) [Example 52, 3-{[(5,7-dimethyl-1,2,3,4-tetrahydronaphthalen-1-yl)methyl]amino}pyridine-4-carboxylic acid] registered an IC50 of 1000 to 10000 nM. For the compound `O=C(O)c1ccncc1NCC1CCCc2c(F)cccc21` (centres unmarked) [Example 54, 3-{[(5-fluoro-1,2,3,4-tetrahydronaphthalen-1-yl)methyl]amino}pyridine-4-carboxylic acid], the IC50 lay within 100 to 1000 nM.

In turn, `O=C(O)c1ccncc1NCC1(O)CCCc2c(F)cccc21` (centres unmarked) [Example 55, 3-{[(5-fluoro-1-hydroxy-1,2,3,4-tetrahydronaphthalen-1-yl)methyl]amino}pyridine-4-carboxylic acid] had an IC50 of 100 to 1000 nM. On to `O=C(O)c1ccncc1NC[C@H]1CCCc2c(F)cccc21` [Example 56, 3-({[(1S)-5-fluoro-1,2,3,4-tetrahydronaphthalen-1-yl]methyl}amino)pyridine-4-carboxylic acid], for which the IC50 is not above 100 nM. In the case of `O=C(O)c1ccncc1NC[C@@H]1CCCc2c(F)cccc21` [Example 57, 3-({[(1R)-5-fluoro-1,2,3,4-tetrahydronaphthalen-1-yl]methyl}amino)pyridine-4-carboxylic acid], the IC50 lay within 100 to 1000 nM. Compound `CC1(C)CCC(CNc2cnccc2C(=O)O)c2ccccc21` (centres unmarked) [Example 59, 3-{[(4,4-dimethyl-1,2,3,4-tetrahydronaphthalen-1-yl)methyl]amino}pyridine-4-carboxylic acid] returned an IC50 of 100 to 1000 nM. For `COc1ccc2c(c1)CCC[C@@H]2CNc1cnccc1C(=O)O` [Example 61, 3-({[(1S)-6-methoxy-1,2,3,4-tetrahydronaphthalen-1-yl]methyl}amino)pyridine-4-carboxylic acid], the IC50 lay in the range of 100 to 1000 nM.

Compound `COc1ccc2c(c1)CCC[C@H]2CNc1cnccc1C(=O)O` [Example 62, 3-({[(1R)-6-methoxy-1,2,3,4-tetrahydronaphthalen-1-yl]methyl}amino)pyridine-4-carboxylic acid] gave an IC50 of 100 to 1000 nM. The figure for `CC(C)Oc1ccc2c(c1)CCCC2CNc1cnccc1C(=O)O` (centres unmarked) [Example 64] is 100 to 1000 nM; for `O=C(O)c1ccncc1NCC1CCOc2cc(Cl)ccc21` (centres unmarked) [Example 66, 3-{[(7-chloro-3,4-diydro-2H-chromen-4-y)methyl]amino}pyridine-4-carboxylic acid] it is 100 to 1000 nM; for `O=C(O)c1ccncc1NCC1CCOc2cc(-c3ccccc3)ccc21` (centres unmarked) [Example 69, 3-{[(7-phenyl-3,4-dihydro-2H-chromen-4-yl)methyl]amino}pyridine-4-carboxylic acid] it is 100 to 1000 nM. In the case of `O=C(O)c1ccncc1NCC1CCOc2cc(F)ccc21` (centres unmarked) [Example 70, 3-{[(7-fluoro-3,4-dihydro-2H-chromen-4-yl)methyl]amino}pyridine-4-carboxylic acid], the IC50 was 100 to 1000 nM. The value for `O=C(O)c1ccncc1NCC1CCOc2c(F)cccc21` (centres unmarked) [Example 71, 3-{[(8-fluoro-3,4-dihydro-2H-chromen-4-yl)methyl]amino}pyridine-4-carboxylic acid] was not above 100 nM. Regarding `O=C(O)c1ccncc1NCC1CCCc2ccc(Cl)cc21` (centres unmarked) [Example 72, 3-{[(7-chloro-1,2,3,4-tetrahydronaphthalen-1-yl)methyl]amino}pyridine-4-carboxylic acid], the half-inhibitory concentration (IC50) is 100 to 1000 nM. The figure for `O=C(O)c1ccncc1NCC1CCCc2ccc(-c3ccccc3)cc21` (centres unmarked) [Example 73, 3-{[(7-phenyl-1,2,3,4-tetrahydronaphthalen-1-yl)methyl]amino}pyridine-4-carboxylic acid] is 100 to 1000 nM; for `COc1cccc2c1CCCC2CNc1cnccc1C(=O)O` (centres unmarked) [Example 74, 3-{[(5-methoxy-1,2,3,4-tetrahydronaphthalen-1-yl)methyl]amino}pyridine-4-carboxylic acid] it is 100 to 1000 nM.

Regarding `O=C(O)c1ccncc1NCC1CCOc2cc(C3CC3)ccc21` (centres unmarked) [Example 75, 3-{[(7-cyclopropyl-3,4-dihydro-2H-chromen-4-yl)methyl]amino}pyridine-4-carboxylic acid], the IC50 was 100 to 1000 nM. The figure for `O=C(O)c1ccncc1NCC1CCCc2c(OCC3CC3)cccc21` (centres unmarked) [Example 76] is 1000 to 10000 nM. Compound `O=C(O)c1ccncc1NCC1CCCc2c(Oc3ccccc3)cccc21` (centres unmarked) [Example 77, 3-{[(5-phenoxy-1,2,3,4-tetrahydronaphthalen-1-yl)methyl]amino}pyridine-4-carboxylic acid] came in with an IC50 of 1000 to 10000 nM. The value for `O=C(O)c1ccncc1NCC1CCSc2ccccc21` (centres unmarked) [Example 78, 3-[(3,4-dihydro-2H-thiochromen-4-ylmethyl)amino]pyridine-4-carboxylic acid] was 100 to 1000 nM; that for `O=C(O)c1ccncc1NCC1CCCc2cc(OCCC(F)(F)F)ccc21` (centres unmarked) [Example 79] was 100 to 1000 nM. The value for `O=C(O)c1ccncc1NCC1CCCc2cc(OCC3CC3)ccc21` (centres unmarked) [Example 81] was 100 to 1000 nM. Regarding `CN1CCC(CNc2cnccc2C(=O)O)c2ccccc21` (centres unmarked) [Example 82, 3{[(1-methyl-1,2,3,4-tetrahydroquinolin-4-yl)methyl]amino}pyridine-4-carboxylic acid], the IC50 was in the range of 100 to 1000 nM.

Compound `O=C(O)c1ccncc1NC[C@H]1CCOc2cc(-c3ccccc3)ccc21` [Example 83, 3-({[(4S)-7-phenyl-3,4-dihydro-2H-chromen-4-yl]methyl}amino)pyridine-4-carboxylic acid] yielded an IC50 of 100 to 1000 nM. The compound `O=C(O)c1ccncc1NC[C@@H]1CCOc2cc(-c3ccccc3)ccc21` [Example 84, 3-({[(4R)-7-phenyl-3,4-dihydro-2H-chromen-4-yl]methyl}amino)pyridine-4-carboxylic acid] showed an IC50 of 100 to 1000 nM. Turning to `O=C(O)c1ccncc1NC[C@H]1CCOc2cc(-c3cccc(F)c3)ccc21` [Example 85, 3-({[(4S)-7-(3-fluorophenyl)-3,4-dihydro-2H-chromen-4-yl]methyl}amino)pyridine-4-carboxylic acid], the IC50 lay in the range of 100 to 1000 nM. Compound `O=C(O)c1ccncc1NC[C@@H]1CCOc2cc(-c3cccc(F)c3)ccc21` [Example 86, 3-({[(4R)-7-(3-fluorophenyl)-3,4-dihydro-2H-chromen-4-yl]methyl}amino)pyridine-4-carboxylic acid] had an IC50 of 1000 to 10000 nM. For `O=C(O)c1ccncc1NC[C@H]1CCOc2cc(C3CC3)ccc21` [Example 87, 3-({[(4S)-7-cyclopropyl-3,4-dihydro-2H-chromen-4-yl]methyl}amino)pyridine-4-carboxylic acid], the IC50 was not above 100 nM. As for `O=C(O)c1ccncc1NC[C@@H]1CCOc2cc(C3CC3)ccc21` [Example 88, 3-({[(4R)-7-cyclopropyl-3,4-dihydro-2H-chromen-4-yl]methyl}amino)pyridine-4-carboxylic acid], the IC50 was 100 to 1000 nM. For `O=C(O)c1ccncc1NCC1CCCc2cc(OCCc3ccccc3)ccc21` (centres unmarked) [Example 89, 3-({[6-(2-phenylethoxy)-1,2,3,4-tetrahydronaphthalen-1-yl]methyl}amino)pyridin-4-carboxylic acid], the IC50 is 100 to 1000 nM. For the compound `O=C(O)c1ccncc1NCC1CCCc2cc(OCC(F)(F)F)ccc21` (centres unmarked) [Example 90, 3-({[6-(2,2,2-trifluoroethoxy)-1,2,3,4-tetrahydronaphthalen-1-yl]methyl}amino)pyridine-4-carboxylic acid], the IC50 fell in the range of 100 to 1000 nM.

The compound `O=C(O)c1ccncc1NCC1CCOc2cc(CCC3CC3)ccc21` (centres unmarked) [Example 91, 3-({[7-(2-cyclopropylethyl)-3,4-dihydro-2H-chromen-4-yl]methyl}amino)pyridine-4-carboxylic acid] showed an IC50 of 100 to 1000 nM.

Turning to `O=C(O)c1ccncc1NCC1CCCc2cc(OC(F)(F)F)ccc21` (centres unmarked) [Example 92, 3-({[6-(trifluoromethoxy)-1,2,3,4-tetrahydronaphthalen-1-yl]methyl}amino)pyridine-4-carboxylic acid], the IC50 was 1000 to 10000 nM.
